The values that follow come from patent US10435361B2, “Kinase inhibitors” (Topivert Pharma Limited, priority 2013, dated 2019).

In this assay the test system is PBMCs. Briefly: LPS-induced TNFα/IL-8 release in PBMC cells. The assay is classed as cell-based. Particulars: Homo sapiens, assay (b), read-out: IC50 Values for Inhibition of Cytokine Release PBMCs IL-8. On the procedure:
Peripheral blood mononuclear cells (PBMCs) from healthy subjects are separated from whole blood using a density gradient (Lymphoprep, Axis-Shield Healthcare). The PBMCs are seeded in 96 well plates and treated with compounds at the desired concentration for 2 hours before addition of 1 ng/mL LPS (Escherichia Coli 0111:B4 from Sigma Aldrich) for 24 hours under normal tissue culture conditions (37° C., 5% CO2). The supernatant is harvested for determination of IL-8 and TNFα concentrations by sandwich ELISA (Duo-set, R&D systems) and read on the fluorescence microplate reader (Varioskan® Flash, ThermoFisher Scientific).
With `COCCOCCOCCNC(=O)c1cc(Nc2nccc(Oc3ccc(NC(=O)Nc4cc(C(C)(C)C)cc(NS(C)(=O)=O)c4OC)c4ccccc34)n2)cc(OC)c1` [Example 7, 3-((4-((4-(3-(5-(tert-Butyl)-2-methoxy-3-(methylsulfonamido)phenyl)ureido)naphthalen-1-yl)oxy)pyrimidin-2-yl)amino)-5-methoxy-N-(2-(2-(2-methoxyethoxy)ethoxy)ethyl)-benzamide], the IC50 (as a rule, the concentration at which inhibition is half-maximal) is 1.1 nM. As for `COCCOCCOCCOc1cc(Nc2nccc(Oc3ccc(NC(=O)Nc4cc(C(C)(C)C)ccc4OC)c4ccccc34)n2)cc(OC)c1` [Example 8, 1-(5-(tert-Butyl)-2-methoxyphenyl)-3-(4-((2-((3-methoxy-5-(2-(2-(2-methoxyethoxy)ethoxy)-ethoxy)phenyl)amino)pyrimidin-4-yl)oxy)naphthalen-1-yl)urea], the IC50 amounted to 28.1 nM. Then `C#Cc1cc(Nc2nccc(Oc3ccc(NC(=O)Nc4cc(C(C)(C)C)cc(C(=O)NC)c4OC)c4ccccc34)n2)cc(C(=O)NCCN2CCOCC2)c1` [Example 9, 5-(tert-Butyl)-3-(3-(4-((2-((3-ethynyl-5-((2-morpholinoethyl)carbamoyl)phenyl)amino)-pyrimidin-4-yl)oxy)naphthalen-1-yl)ureido)-2-methoxy-N-methylbenzamide], with 1.2 nM; and `COCCOCCOCCOc1cc(Nc2nccc(Oc3ccc(NC(=O)Nc4cc(C(C)(C)C)cc(C(=O)N(C)C)c4OC)c4ccccc34)n2)cc(OC)c1` [Example 19, 5-(tert-Butyl)-2-methoxy-3-(3-(4-((2-((3-methoxy-5-(2-(2-(2-methoxyethoxy)ethoxy)-ethoxy)phenyl)amino)pyrimidin-4-yl)oxy)naphthalen-1-yl)ureido)-N,N-dimethylbenzamide], with 8.7 nM; and `COCCOCCOCCOc1cc(Nc2nccc(Oc3ccc(NC(=O)Nc4cc(C(C)(C)C)cc(C(=O)O)c4OC)c4ccccc34)n2)cc(OC)c1` [Example 21, 5-(tert-Butyl)-2-methoxy-3-(3-(4-((2-((3-methoxy-5-(2-(2-(2-methoxyethoxy)ethoxy)-ethoxy)phenyl)amino)pyrimidin-4-yl)oxy)naphthalen-1-yl)ureido)benzoic acid], with 34.4 nM.

Turning to `COCCOCCOCCOc1cc(Nc2nccc(Oc3ccc(NC(=O)Nc4cc(C(C)(C)C)cc(C#N)c4OC)c4ccccc34)n2)cc(OC)c1` [Example 22, 1-(5-(tert-Butyl)-3-cyano-2-methoxyphenyl)-3-(4-((2-((3-methoxy-5-(2-(2-(2-methoxy-ethoxy)ethoxy)ethoxy)phenyl)amino)pyrimidin-4-yl)oxy)naphthalen-1-yl)urea], the 50% inhibitory concentration (IC50) is 16.9 nM. Then `COCCOCCOCCOc1cc(Nc2nccc(Oc3ccc(NC(=O)Nc4cc(C(C)(C)C)cc(N)c4OC)c4ccccc34)n2)cc(OC)c1` [Example 25, 1-(3-Amino-5-(tert-butyl)-2-methoxyphenyl)-3-(4-((2-((3-methoxy-5-(2-(2-(2-methoxy-ethoxy)ethoxy)ethoxy)phenyl)amino)pyrimidin-4-yl)oxy)naphthalen-1-yl)urea], with 7 nM; and `COc1cc(Nc2nccc(Oc3ccc(NC(=O)Nc4cc(C(C)(C)C)cc(NS(C)(=O)=O)c4OC)c4ccccc34)n2)cc(C(=O)NCCOCCOCCC(=O)O)c1` [Example 26, 3-(2-(2-(3-((4-((4-(3-(5-(tert-Butyl)-2-methoxy-3-(methylsulfonamido)phenyl)ureido)-naphthalen-1-yl)oxy)pyrimidin-2-yl)amino)-5-methoxybenzamido)ethoxy)ethoxy)-propanoic acid], with 21.7 nM. With `COCCOCCOCCOc1cc(Nc2nccc(Oc3ccc(NC(=O)Nc4cc(C(C)(C)C)cc(Nc5ncccn5)c4OC)c4ccccc34)n2)cc(OC)c1` [Example 28, 1-(5-(tert-Butyl)-2-methoxy-3-(pyrimidin-2-ylamino)phenyl)-3-(4-((2-((3-methoxy-5-(2-(2-(2-methoxyethoxy)ethoxy)ethoxy)phenyl)amino)pyrimidin-4-yl)oxy)naphthalen-1-yl)urea], the IC50 is 11.9 nM. Then `COc1cc(Nc2nccc(Oc3ccc(NC(=O)Nc4cc(C(C)(C)C)cc(NS(C)(=O)=O)c4OC)c4ccccc34)n2)cc(OCCOCCOCCC(=O)O)c1` [Example 30, 3-(2-(2-(3-((4-((4-(3-(5-(tert-Butyl)-2-methoxy-3-(methylsulfonamido)phenyl)ureido)-naphthalen-1-yl)oxy)pyrimidin-2-yl)amino)-5-methoxyphenoxy)ethoxy)ethoxy)propanoic acid], with 5.7 nM. For `COc1cc(Nc2nccc(Oc3ccc(NC(=O)Nc4cc(C(C)(C)C)cc(NS(C)(=O)=O)c4OC)c4ccccc34)n2)cc(OCCOCCC(=O)O)c1` [Example 31, 3-(2-(3-((4-((4-(3-(5-(tert-Butyl)-2-methoxy-3-(methylsulfonamido)phenyl)ureido)-naphthalen-1-yl)oxy)pyrimidin-2-yl)amino)-5-methoxyphenoxy)ethoxy)propanoic acid], the IC50 stood at 7.2 nM.

Take `CNC(=O)c1cc(N2CCOCC2)cc(NC(=O)Nc2ccc(Oc3ccnc(Nc4cc(OC)cc(OCCOCCOCCOC)c4)n3)c3ccccc23)c1OC` [Example 32, 2-Methoxy-3-(3-(4-((2-((3-methoxy-5-(2-(2-(2-methoxyethoxy)ethoxy)ethoxy)phenyl)-amino)pyrimidin-4-yl)oxy)naphthalen-1-yl)ureido)-N-methyl-5-morpholinobenzamide]: the IC50 turned out to be 7.7 nM. For `COCCOCCOCCOc1cc(Nc2nccc(Oc3ccc(NC(=O)Nc4cc(C(C)(C)C)cc(C(=O)NC5CC5)c4OC)c4ccccc34)n2)cc(OC)c1` [Example 33, 5-(tert-Butyl)-N-cyclopropyl-2-methoxy-3-(3-(4-((2-((3-methoxy-5-(2-(2-(2-methoxy-ethoxy)ethoxy)ethoxy)phenyl)amino)pyrimidin-4-yl)oxy)naphthalen-1-yl)ureido)-benzamide], the IC50 was determined as 4.2 nM. Regarding `COCCOCCOCCOc1cc(Nc2nccc(Oc3ccc(NC(=O)Nc4cc(C(C)(C)C)cc(C(=O)NCc5ccccc5)c4OC)c4ccccc34)n2)cc(OC)c1` [Example 38, N-Benzyl-5-(tert-butyl)-2-methoxy-3-(3-(4-((2-((3-methoxy-5-(2-(2-(2-methoxyethoxy)-ethoxy)ethoxy)phenyl)amino)pyrimidin-4-yl)oxy)naphthalen-1-yl)ureido)benzamide], the half-maximal inhibitory concentration (IC50) was 6.3 nM. As for `COCCOCCOCCOCCOCCOCCOCCNC(=O)c1cc(Nc2nccc(Oc3ccc(NC(=O)Nc4cc(C(C)(C)C)cc(NS(C)(=O)=O)c4OC)c4ccccc34)n2)cc(OC)c1` [Example 40, 3-((4-((4-(3-(5-(tert-Butyl)-2-methoxy-3-(methylsulfonamido)phenyl)ureido)naphthalen-1-yl)oxy)pyrimidin-2-yl)amino)-N-(2,5,8,11,14,17,20-heptaoxadocosan-22-yl)-5-methoxy-benzamide], the IC50 worked out at 3.1 nM.

For `CCNC(=O)c1cc(C(C)(C)C)cc(NC(=O)Nc2ccc(Oc3ccnc(Nc4cc(OC)cc(OCCOCCOCCOC)c4)n3)c3ccccc23)c1OC` [Example 41], the IC50 came out at 4.5 nM. To `COCCOCCOCCOc1cc(Nc2nccc(Oc3ccc(NC(=O)Nc4cc(C(C)(C)C)cc(C(=O)NC(C)C)c4OC)c4ccccc34)n2)cc(OC)c1` [Example 42, 5-(tert-Butyl)-N-isopropyl-2-methoxy-3-(3-(4-((2-((3-methoxy-5-(2-(2-(2-methoxyethoxy)-ethoxy)ethoxy)phenyl)amino)pyrimidin-4-yl)ox)naphthalen-1-yl)ureido)benzamide] belongs 6.6 nM.
